{
  "source": "patent US20100317624A1",
  "about": "(ASTRAZENECA AB, priority 2009, published 2010)",
  "note": "Where a name gives a salt, the structure may show the parent alone.",
  "data": [
    {"biological_target": "S. aureus GyrB ATPase (Staphylococcus aureus, UniProt P0A0K8)", "sequence (P0AES4 whole entry)": "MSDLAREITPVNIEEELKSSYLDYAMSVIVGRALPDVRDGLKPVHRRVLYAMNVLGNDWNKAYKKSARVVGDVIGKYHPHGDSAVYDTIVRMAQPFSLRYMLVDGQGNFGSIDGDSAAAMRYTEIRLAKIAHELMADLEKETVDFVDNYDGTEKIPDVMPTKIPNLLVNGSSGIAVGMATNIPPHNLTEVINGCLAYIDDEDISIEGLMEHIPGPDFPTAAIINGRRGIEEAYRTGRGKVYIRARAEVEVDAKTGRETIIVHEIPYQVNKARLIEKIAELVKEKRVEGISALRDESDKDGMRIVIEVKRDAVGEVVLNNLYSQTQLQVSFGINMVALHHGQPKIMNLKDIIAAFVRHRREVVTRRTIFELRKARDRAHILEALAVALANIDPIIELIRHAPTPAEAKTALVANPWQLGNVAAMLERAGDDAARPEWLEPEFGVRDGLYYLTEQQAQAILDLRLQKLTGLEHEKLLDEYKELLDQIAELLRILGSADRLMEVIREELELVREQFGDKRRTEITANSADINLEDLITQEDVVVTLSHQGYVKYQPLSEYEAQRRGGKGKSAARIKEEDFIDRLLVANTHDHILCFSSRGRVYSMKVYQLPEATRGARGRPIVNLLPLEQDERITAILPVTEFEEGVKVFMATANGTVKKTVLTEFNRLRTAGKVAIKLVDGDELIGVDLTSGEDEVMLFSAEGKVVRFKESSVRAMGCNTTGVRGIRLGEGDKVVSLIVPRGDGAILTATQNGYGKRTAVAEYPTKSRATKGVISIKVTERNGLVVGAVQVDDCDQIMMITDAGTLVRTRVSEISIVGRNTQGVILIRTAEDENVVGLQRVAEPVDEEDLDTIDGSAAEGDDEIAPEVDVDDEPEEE", "sequence (P0A0K8 whole entry)": "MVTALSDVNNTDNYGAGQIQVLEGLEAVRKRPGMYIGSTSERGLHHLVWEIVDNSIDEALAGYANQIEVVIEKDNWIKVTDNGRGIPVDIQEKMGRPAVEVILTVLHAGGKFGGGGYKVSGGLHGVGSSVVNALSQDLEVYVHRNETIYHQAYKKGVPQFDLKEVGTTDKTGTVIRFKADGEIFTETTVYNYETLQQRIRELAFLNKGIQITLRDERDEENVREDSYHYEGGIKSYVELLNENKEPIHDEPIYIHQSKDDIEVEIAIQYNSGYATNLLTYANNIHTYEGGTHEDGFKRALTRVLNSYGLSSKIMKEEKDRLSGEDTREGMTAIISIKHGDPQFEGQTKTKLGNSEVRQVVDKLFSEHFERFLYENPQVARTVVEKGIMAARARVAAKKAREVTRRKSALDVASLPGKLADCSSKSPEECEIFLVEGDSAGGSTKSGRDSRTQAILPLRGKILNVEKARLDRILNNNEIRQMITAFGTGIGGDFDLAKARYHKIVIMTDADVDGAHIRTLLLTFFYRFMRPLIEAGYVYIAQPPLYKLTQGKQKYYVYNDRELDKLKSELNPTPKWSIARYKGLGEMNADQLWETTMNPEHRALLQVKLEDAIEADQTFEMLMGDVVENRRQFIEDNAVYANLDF", "test": "S. aureus GyrB ATPase inhibition (ammonium molybdate/malachite green phosphate detection)", "assay_type": "biochemical", "conditions": "compound at 1 μM; inhibition of S. aureus GyrB ATPase; read-out: Percent Inhibition (1 μM)", "description": "S. aureus GyrB ATPase Inhibition Activity: Compounds may be tested for inhibition of S. aureus GyrB ATPase activity using an ammonium molybdate/malachite green-based phosphate detection assay (Lanzetta, P. A., L. J. Alvarez, P. S. Reinach, and O. A. Candia, 1979, 100: 95-97). Assays can be performed in multiwell plates in 30 μl reactions containing: 50 mM Hepes buffer pH 7.5, 75 mM ammonium acetate, 8.0 mM magnesium chloride, 0.5 mM ethylenediaminetetraacetic acid, 5% glycerol, 1.0 mM 1,4-Dithio-DL-threitol, 200 nM bovine serum albumin, 1.0 μg/ml sheared salmon sperm DNA, 250 pM E. coli GyrA, 250 pM S. aureus GyrB, 250 μM ATP, and compound in dimethylsulfoxide. Reactions can be quenched with 30 μl of ammonium molybdate/malachite green detection reagent containing 1.2 mM malachite green hydrochloride, 8.5 mM ammonium molybdate tetrahydrate, and 1 M hydrochloric acid. Plates can be read in an absorbance plate reader at 650 nm and percent inhibition values can be calculated using dimethylsulfoxide (2%)-containing reactions as 0% inhibition and EDTA-containing ([…]) reactions as 100% inhibition controls. An IC50 measurement of compound potency for each compound can be determined from reactions performed in the presence of 10 different compound concentrations.", "units": {"inhibition at 1 µM": "%"}, "values": [
      {"molecule": "CCNC(=O)Nc1cc(-c2nc(C(F)(F)F)cs2)c(-c2cc3c(=O)c(C(=O)O)cn(CCN(C)C)c3cc2F)cn1", "note": "[Example 20, 1-(2-(dimethylamino)ethyl)-6-(6-(3-ethylureido)-4-(4-(trifluoromethyl)thiazol-2-yl)pyridin-3-yl)-7-fluoro-4-oxo-1,4-dihydroquinoline-3-carboxylic acid]", "inhibition at 1 µM": 106},
      {"molecule": "CCNC(=O)Nc1cc(-c2nc(C(F)(F)F)cs2)c(-c2ccc3c(c2)c(=O)c(C(=O)N(C)C)cn3CC2CN3CCN2CC3)cn1", "note": "(stereo not drawn) [Example 31, 1-(1,4-diazabicyclo[2.2.2]oct-2-ylmethyl)-6-{6-[(ethylcarbamoyl)amino]-4-[4-(trifluoromethyl)-1,3-thiazol-2-yl]pyridin-3-yl}-N,N-dimethyl-4-oxo-1,4-dihydroquinoline-3-carboxamide]", "inhibition at 1 µM": 114},
      {"molecule": "CCNC(=O)Nc1cc(-c2nc(C(F)(F)F)cs2)c(-c2cc3c(=O)c(C(=O)O)cn(CC)c3cc2N2CCN(C)CC2)cn1", "note": "[Example 22, 1-ethyl-6-(6-(3-ethylureido)-4-(4-(trifluoromethyl)thiazol-2-yl)pyridin-3-yl)-7-(4-methylpiperazin-1-yl)-4-oxo-1,4-dihydroquinoline-3-carboxylic acid]", "inhibition at 1 µM": 103},
      {"molecule": "CCNC(=O)Nc1cc(-c2nc(C(F)(F)F)cs2)c(-c2ccc3c(=O)c(C(=O)NCCCOP(=O)(O)O)cn(CCC(C)C)c3c2)cn1", "note": "[Example 16, 3-({[7-{6-[(ethylcarbamoyl)amino]-4-[4-(trifluoromethyl)-1,3-thiazol-2-yl]pyridin-3-yl}-1-(3-methylbutyl)-4-oxo-1,4-dihydroquinolin-3-yl]carbonyl}amino)propyl dihydrogen phosphate]", "inhibition at 1 µM": 100},
      {"molecule": "CCNC(=O)Nc1cc(-c2nc(C(F)(F)F)cs2)c(-c2ccc3c(=O)c(C(=O)NCCCOP(=O)(O)O)cn(CC)c3c2)cn1", "note": "[Example 14, 3-{[(1-ethyl-7-{6-[(ethylcarbamoyl)amino]-4-[4-(trifluoromethyl)-1,3-thiazol-2-yl]pyridin-3-yl}-4-oxo-1,4-dihydroquinolin-3-yl)carbonyl]amino}propyl dihydrogen phosphate]", "inhibition at 1 µM": 97},
      {"molecule": "CCNC(=O)Nc1cc(-c2nc(C(F)(F)F)cs2)c(-c2cc3c(=O)c(C(=O)O)cn(CCN4CCOCC4)c3cc2F)cn1", "note": "[Example 50, 6-(6-(3-ethylureido)-4-(4-(trifluoromethyl)thiazol-2-yl)pyridin-3-yl)-7-fluoro-1-(2-morpholinoethyl)-4-oxo-1,4-dihydroquinoline-3-carboxylic acid]", "inhibition at 1 µM": 106},
      {"molecule": "CCNC(=O)Nc1cc(-c2nc(C(F)(F)F)cs2)c(-c2ccc3c(c2)c(=O)c(C(=O)O)cn3[C@H](COP(=O)(O)O)CC(C)C)cn1", "note": "[Example 7, (5)-6-(6-(3-ethylureido)-4-(4-(trifluoromethyl)thiazol-2-yl)pyridin-3-yl)-1-(4-methyl-1-(phosphonooxy)pentan-2-yl)-4-oxo-1,4-dihydroquinoline-3-carboxylic acid]", "inhibition at 1 µM": 111},
      {"molecule": "CCNC(=O)Nc1cc(-c2nc(C(F)(F)F)cs2)c(-c2cc3c(=O)c(C(=O)O)cn([C@H](CO)C(C)(C)C)c3cc2F)cn1", "note": "[Example 27, 6-(6-(3-ethylureido)-4-(4-(trifluoromethyl)thiazol-2-yl)pyridin-3-yl)-7-fluoro-1-((S)-1-hydroxy-3,3-dimethylbutan-2-yl)-4-oxo-1,4-dihydroquinoline-3-carboxylic acid]", "inhibition at 1 µM": 125},
      {"molecule": "CCNC(=O)Nc1cc(-c2nc(C(F)(F)F)cs2)c(-c2ccc3c(c2)c(=O)c(C(=O)OCCOP(=O)(O)O)cn3C(COC)COC)cn1", "note": "[Example 19, 2-(phosphonooxy)ethyl 1-(1,3-dimethoxypropan-2-yl)-6-(6-(3-ethylureido)-4-(4-(trifluoromethyl)thiazol-2-yl)pyridin-3-yl)-4-oxo-1,4-dihydroquinoline-3-carboxylate]", "inhibition at 1 µM": 110},
      {"molecule": "CCNC(=O)Nc1cc(-c2nc(C(F)(F)F)cs2)c(-c2ccc3c(c2)c(=O)c(C(=O)OCCOC(C)=O)cn3C(COC)COC)cn1", "note": "[Example 41, 2-acetoxyethyl 1-(1,3-dimethoxypropan-2-yl)-6-(6-(3-ethylureido)-4-(4-(trifluoromethyl)thiazol-2-yl)pyridin-3-yl)-4-oxo-1,4-dihydroquinoline-3-carboxylate]", "inhibition at 1 µM": 107},
      {"molecule": "CCCn1cc(C(=O)NCCCOP(=O)(O)O)c(=O)c2ccc(-c3cnc(NC(=O)NCC)cc3-c3nc(C(F)(F)F)cs3)cc21", "note": "[Example 17, 3-{[(7-{6-[(ethylcarbamoyl)amino]-4-[4-(trifluoromethyl)-1,3-thiazol-2-yl]pyridin-3-yl}-4-oxo-1-propyl-1,4-dihydroquinolin-3-yl)carbonyl]amino}propyl dihydrogen phosphate]", "inhibition at 1 µM": 100},
      {"molecule": "CCNC(=O)Nc1cc(-c2nc(C(F)(F)F)cs2)c(-c2ccc3c(c2)c(=O)c(C(=O)O)cn3[C@@H](CC)COP(=O)(O)O)cn1", "note": "[Example 5, (S)-6-(6-(3-ethylureido)-4-(4-(trifluoromethyl)thiazol-2-yl)pyridin-3-yl)-4-oxo-1-(1-(phosphonooxy)butan-2-yl)-1,4-dihydroquinoline-3-carboxylic acid]", "inhibition at 1 µM": 120},
      {"molecule": "CCNC(=O)Nc1cc(-c2nc(C(F)(F)F)cs2)c(-c2ccc3c(c2)c(=O)c(C(=O)O)cn3C[C@@H]2CCN(CCN3CCN(C)CC3)C2)cn1", "note": "[Example 36, (R)-6-(6-(3-ethylureido)-4-(4-(trifluoromethyl)thiazol-2-yl)pyridin-3-yl)-1-((1-(2-(4-methylpiperazin-1-yl)ethyl)pyrrolidin-3-yl)methyl)-4-oxo-1,4-dihydroquinoline-3-carboxylic acid]", "inhibition at 1 µM": 112},
      {"molecule": "CCNC(=O)Nc1cc(-c2nc(C(F)(F)F)cs2)c(-c2ccc3c(c2)c(=O)c(C(=O)O)cn3CC(C)N2CCOCC2)cn1", "note": "(stereo not drawn) [Example 56, 6-(6-(3-Ethylureido)-4-(4-(trifluoromethyl)thiazol-2-yl)pyridin-3-yl)-1-(2-morpholinopropyl)-4-oxo-1,4-dihydroquinoline-3-carboxylic acid]", "inhibition at 1 µM": 101},
      {"molecule": "CCNC(=O)Nc1cc(-c2nc(C(F)(F)F)cs2)c(-c2ccc3c(c2)c(=O)c(C(=O)O)cn3C[C@H]2CCN(CCN3CCN(C)CC3)C2)cn1", "note": "[Example 37, (S)-6-(6-(3-ethylureido)-4-(4-(trifluoromethyl)thiazol-2-yl)pyridin-3-yl)-1-((1-(2-(4-methylpiperazin-1-yl)ethyl)pyrrolidin-3-yl)methyl)-4-oxo-1,4-dihydroquinoline-3-carboxylic acid]", "inhibition at 1 µM": 100},
      {"molecule": "CCNC(=O)Nc1cc(-c2nc(C(F)(F)F)cs2)c(-c2cc3c(=O)c(C(=O)O)cn(CCN(C)C)c3cc2OCCN(C)C)cn1", "note": "[Example 26, 7-(2-(dimethylamino)ethoxy)-1-(2-(dimethylamino)ethyl)-6-(6-(3-ethylureido)-4-(4-(trifluoromethyl)thiazol-2-yl)pyridin-3-yl)-4-oxo-1,4-dihydroquinoline-3-carboxylic acid]", "inhibition at 1 µM": 108},
      {"molecule": "CCNC(=O)Nc1cc(-c2nc(-c3ccccc3)cs2)c(-c2cc3c(=O)c(C(=O)O)cn(C[C@@H]4CCCN4CC)c3cc2OCCN(CC)CC)cn1", "note": "[Example 49, (S)-7-(2-(diethylamino)ethoxy)-1-((1-ethylpyrrolidin-2-yl)methyl)-6-(6-(3-ethylureido)-4-(4-phenylthiazol-2-yl)pyridin-3-yl)-4-oxo-1,4-dihydroquinoline-3-carboxylic acid]", "inhibition at 1 µM": 105},
      {"molecule": "CCNC(=O)Nc1cc(-c2nc(C(F)(F)F)cs2)c(-c2ccc3c(c2)c(=O)c(C(=O)NCCOP(=O)(O)O)cn3C2CC2)cn1", "note": "[Example 9, 2-(1-cyclopropyl-6-(6-(3-ethylureido)-4-(4-(trifluoromethyl)thiazol-2-yl)pyridin-3-yl)-4-oxo-1,4-dihydroquinoline-3-carboxamido)ethyl dihydrogen phosphate hydrochloride]", "inhibition at 1 µM": 103},
      {"molecule": "CCNC(=O)Nc1cc(-c2nc(C(F)(F)F)cs2)c(-c2ccc3c(c2)c(=O)c(C(=O)O)cn3[C@H](CC)COP(=O)(O)O)cn1", "note": "[Example 6, (R)-6-(6-(3-ethylureido)-4-(4-(trifluoromethyl)thiazol-2-yl)pyridin-3-yl)-4-oxo-1-(1-(phosphonooxy)butan-2-yl)-1,4-dihydroquinoline-3-carboxylic acid]", "inhibition at 1 µM": 96},
      {"molecule": "CCNC(=O)Nc1cc(-c2nc(C(F)(F)F)cs2)c(-c2ccc3c(c2)c(=O)c(C(=O)OCCOC(=O)C(C)(C)C)cn3C(COC)COC)cn1", "note": "[Example 44, 2-(pivaloyloxy)ethyl 1-(1,3-dimethoxypropan-2-yl)-6-(6-(3-ethylureido)-4-(4-(trifluoromethyl)thiazol-2-yl)pyridin-3-yl)-4-oxo-1,4-dihydroquinoline-3-carboxylate]", "inhibition at 1 µM": 98},
      {"molecule": "CCNC(=O)Nc1cc(-c2nc(-c3ccccc3)cs2)c(-c2cc3c(=O)c(C(=O)O)cn(C[C@@H]4CCCN4CC)c3cc2OCCN(C)C)cn1", "note": "[Example 23, 7-(2-(dimethylamino)ethoxy)-1-(((S)-1-ethylpyrrolidin-2-yl)methyl)-6-(6-(3-ethylureido)-4-(4-phenylthiazol-2-yl)pyridin-3-yl)-4-oxo-1,4-dihydroquinoline-3-carboxylic acid]", "inhibition at 1 µM": 100}
    ]}
  ]
}
